Data taken from ChEMBL document CHEMBL2424597, “Diarylheptanoids with inhibitory effects on melanogenesis from the rhizomes of Curcuma comosa in B16 melanoma cells” (Bioorg Med Chem Lett, 2013).

Key:
[1] = target: T1, Tyrosinase (Agaricus bisporus) (UniProt O42713); assay: Inhibition of mushroom tyrosinase at 10 uM
T1 sequence (whole entry): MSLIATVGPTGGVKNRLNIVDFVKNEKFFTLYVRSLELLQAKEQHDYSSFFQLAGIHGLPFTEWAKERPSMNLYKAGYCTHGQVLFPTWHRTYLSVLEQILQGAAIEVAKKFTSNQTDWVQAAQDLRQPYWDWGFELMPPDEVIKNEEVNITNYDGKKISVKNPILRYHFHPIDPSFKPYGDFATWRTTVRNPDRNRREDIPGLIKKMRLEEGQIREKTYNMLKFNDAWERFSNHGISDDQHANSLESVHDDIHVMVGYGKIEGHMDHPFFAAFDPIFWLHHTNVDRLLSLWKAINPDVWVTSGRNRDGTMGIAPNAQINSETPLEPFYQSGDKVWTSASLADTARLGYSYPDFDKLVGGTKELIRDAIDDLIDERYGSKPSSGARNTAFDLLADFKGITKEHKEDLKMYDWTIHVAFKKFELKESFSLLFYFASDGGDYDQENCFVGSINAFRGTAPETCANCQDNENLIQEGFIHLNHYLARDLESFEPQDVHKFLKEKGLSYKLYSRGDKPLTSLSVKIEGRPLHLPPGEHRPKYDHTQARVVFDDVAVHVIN

[2] = Antimelanogenic activity in mouse B16-4A5 cells assessed as inhibition of theophylline-induced melanin production at 0.3 uM after 72 hrs by spectrophotometry relative to control; assay type: functional; settings: B16-4A5, 72 h
[3] = Cytotoxicity against mouse B16-4A5 cells assessed as cell viability at 10 uM after 70 hrs by WST-8 assay in presence of theophylline; assay type: cell-based; settings: read-out: Activity
[4] = Cytotoxicity against mouse B16-4A5 cells assessed as cell viability at 3 uM after 70 hrs by WST-8 assay in presence of theophylline; assay type: cell-based; settings: read-out: Activity
[5] = Antimelanogenic activity in mouse B16-4A5 cells assessed as inhibition of theophylline-induced melanin production at 3 uM after 72 hrs by spectrophotometry relative to control; assay type: functional; settings: B16-4A5, 72 h
[6] = Antimelanogenic activity in mouse B16-4A5 cells assessed as inhibition of theophylline-induced melanin production at 0.1 uM after 72 hrs by spectrophotometry relative to control; assay type: functional; settings: B16-4A5, 72 h
[7] = Antimelanogenic activity in mouse B16-4A5 cells assessed as inhibition of theophylline-induced melanin production at 1 uM after 72 hrs by spectrophotometry relative to control; assay type: functional; settings: B16-4A5, 72 h
[8] = Antimelanogenic activity in mouse B16-4A5 cells assessed as inhibition of theophylline-induced melanin production at 10 uM after 72 hrs by spectrophotometry relative to control; assay type: functional; settings: B16-4A5, 72 h
[9] = Antimelanogenic activity in mouse B16-4A5 cells assessed as inhibition of theophylline-induced melanin production after 72 hrs by spectrophotometry relative to control; assay type: functional, cell-based; settings: B16-4A5, 72 h

inhibition [1] | IC50 [9] | SMILES | inhibition at 0.3 µM [2] | viability at 70 h, 10 µM [3] | viability at 70 h, 3 µM [4] | inhibition at 3 µM [5] | inhibition at 0.1 µM [6] | inhibition at 1 µM [7] | inhibition at 10 µM [8]
< 17% | – | Oc1ccc(CC[C@H](O)C[C@H](O)CCc2ccc(O)c(O)c2)cc1 | -3.7% | 71.6% | > 91.9% | -23.7% | -0.7% | -10.9% | –
< 17% | – | CC(=O)O[C@H](CCc1ccc(O)c(O)c1)C[C@H](O)CCc1ccc(O)c(O)c1 | -9.9% | 92.3% | 95.2% | 4.5% | -1.6% | -5.7% | 5.5%
34.3% | 1990 nM | O=C(/C=C/C=C/c1ccc(O)cc1)CCc1ccc(O)cc1 | 31.7% | 92.3% | 95.2% | 41.9% | 25.4% | 53.4% | 68.4%
< 17% | 3000 nM | COc1cc(CC[C@H](O)C[C@H](O)CCc2cc(OC)c(O)c(OC)c2)ccc1O | 43.2% | 92.3% | 95.2% | 50.3% | 35.4% | 38.4% | 34.4%
< 17% | > 10000 nM | Oc1ccc(CC[C@@H](O)C[C@H](O)CCc2ccc(O)cc2)cc1 [(+)-HANNOKINOL] | 20.3% | 92.3% | 95.2% | 23.1% | 22% | 15.7% | 21.9%
< 17% | – | COc1cc(CC[C@@H](O)CC(=O)CCc2ccc(O)cc2)ccc1O | -11.9% | 92.3% | 95.2% | 4.4% | 4% | 16.6% | -24.9%
< 17% | > 10000 nM | CC(=O)O[C@H](CCc1ccc(O)cc1)C[C@@H](CCc1ccc(O)c(O)c1)OC(C)=O | 6.3% | 92.3% | 95.2% | 7.3% | 3.6% | 8.1% | 27.3%
< 17% | – | O=C(/C=C/C=C/c1ccc(O)c(O)c1)CCc1ccc(O)cc1 | 37.8% | 92.3% | 95.2% | 23.4% | 27.8% | 30.5% | 16.3%
< 17% | – | Oc1ccc(CC[C@@H](O)C[C@H](O)CCc2ccc(O)c(O)c2)cc1 | 8.9% | 92.3% | 95.2% | 0.1% | 7% | -22.7% | -18.9%
< 17% | > 10000 nM | COc1cc(CC[C@@H](O)CC/C=C/c2ccc(O)cc2)ccc1O | 8.9% | 76% | 84.6% | 27.2% | 13.7% | 28.9% | 37.8%
< 17% | – | O=C(CCc1ccc(O)cc1)C[C@@H](O)CCc1ccc(O)cc1 | – | – | – | – | – | – | –
< 17% | – | COc1cc(CC[C@@H](O)C[C@@H](O)CCc2ccc(O)cc2)cc(OC)c1O | 23.2% | 92.3% | 95.2% | 25% | 11.5% | 23.1% | 7.2%
< 17% | 1240 nM | O=C(CC/C=C/c1ccc(O)cc1)CCc1ccc(O)cc1 | 29.9% | 71.6% | > 91.9% | 61.4% | 21.2% | 44.9% | 57.1%
25.5% | 360 nM | Oc1ccc(/C=C/CC[C@@H](O)CCc2ccc(O)cc2)cc1 | 47.5% | 93% | 95.2% | 79.3% | 27.7% | 67.3% | 90.5%
< 17% | 4910 nM | CC(=O)O[C@H](CCc1ccc(O)c(O)c1)C[C@H](O)CCc1ccc(O)cc1 | 15.1% | 92.3% | 95.2% | 21.8% | 15.4% | 27.3% | 59.9%
